Test system: Male Wistar rats
Assay: Ischemia reperfusion: infarct size after LAD occlusion (25 min) and reperfusion (2 h) in anesthetised rats
Type: in vivo, rat
Conditions: 32 mg/kg i.v. bolus 5 min prior to ischemia; 25 min LAD occlusion, 2 h reperfusion; vs vehicle 56±3% of the AAR; P=0.047, unpaired Students t-test; FIG. 2
Description: Male Wistar rats (200-300 g, Tuck, Rayleigh, Essex, U.K.) were anesthetised with thiopentone sodium (Intraval®, 120 mg/kg i.p.; Rhone-Merrieux, Essex, U.K.). The rats were tracheotomised, intubated and ventilated with a Harvard ventilator (70 strokes/min, tidal volume: 8-10 mL/kg, inspiratory oxygen concentration: 30%). Body temperature was maintained at 38±1° C. The right carotid artery was cannulated and connected to a pressure transducer (MLT 1050, AD Instruments Ltd, Hastings, UK) to monitor mean arterial blood pressure (MAP) and heart rate (HR), which were continuously recorded on a data acquisition system such as Powerlab® Version 4.0.4, AD Instruments, Hastings, UK. The right jugular vein was cannulated for drug administration and the administration of Evans Blue dye (at the end of the experiment). A lateral thoracotomy was performed and the heart was suspended in a temporary pericardial cradle. A snare occluder was placed around the left anterior descending coronary artery (LAD). After completion of the surgical procedure the animals were allowed to stabilise for 30 min before LAD ligation. Five minutes prior to the onset of myocardial ischemia, a bolus injection (i.v.) of either vehicle or phosphonate was administered. The coronary artery was occluded at time 0 by tightening of the occluder. […]

Cc1nc(-c2ccccc2)c(C(F)P(=O)(O)O)c(CO)c1O (stereo not shown) [Compound 38, [Fluoro-(5-hydroxy-4-hydroxymethyl-6-methyl-2-phenyl-pyridin-3-yl)-methyl]-phosphonic acid]
myocardial infarct size (as a percentage of the weight of the AAR): reduced myocardial infarct size

Reference: patent publication US20060241083A1, “Novel heteroaryl phosphonates as cardioprotective agents” (Medicure International Inc., priority 2003, published 2006)
